The text below walks through data of ChEMBL document CHEMBL5724914, “Linking interpersonal differences in gut microbiota composition and drug biotransformation activity” (2024).

The conditions of data set [1]: human gut metagenome, 24 h, 2 µM.
For data set [2] the following is noted: human gut metagenome, 24 h, 2 µM. The source holds these as a separate data set.
Data set [3] in a line: The drug is tested on Z-001 corresponding to mouse gut metagenome with ENA study accession number: PRJEB37062 and ENA sample accession number: ERS12561801 for biotransformation under anaerobic condition. The drug concentrations were measured over 9 timepoints collected between 0 and 24 hours of incubation by liquid-chromatography-coupled mass spectrometry (LC–MS). The conditions noted are these: 2 µM.

Data set [4] can be described thus: The drug is tested on Z-016 corresponding to mouse gut metagenome with ENA study accession number: PRJEB37062 and ENA sample accession number: ERS12561815 for biotransformation under anaerobic condition. The drug concentrations were measured over 9 timepoints collected between 0 and 24 hours of incubation by liquid-chromatography-coupled mass spectrometry (LC–MS). The conditions noted are these: 2 µM.

The conditions of data set [5]: human gut metagenome, 24 h, 2 µM. The source holds these as a separate data set.
The conditions of data set [6]: human gut metagenome, 24 h, 2 µM. The source holds these as a separate data set.
Data set [7] in a line: The drug is tested on WLS-350 corresponding to human gut metagenome with ENA study accession number: PRJEB37062 and ENA sample accession number: ERS12561789 for biotransformation under anaerobic condition. The drug concentrations were measured over 9 timepoints collected between 0 and 24 hours of incubation by liquid-chromatography-coupled mass spectrometry (LC–MS). The conditions noted are these: 2 µM.

A short description of data set [8]: The drug is tested on Z-019 corresponding to rat gut metagenome with ENA study accession number: PRJEB37062 and ENA sample accession number: ERS12561818 for biotransformation under anaerobic condition. The drug concentrations were measured over 9 timepoints collected between 0 and 24 hours of incubation by liquid-chromatography-coupled mass spectrometry (LC–MS). The conditions noted are these: 2 µM.

For data set [9] the following is noted: human gut metagenome, 24 h, 2 µM. The source holds these as a separate data set.
A short description of data set [10]: The drug is tested on Z-020 corresponding to rabbit gut metagenome with ENA study accession number: PRJEB37062 and ENA sample accession number: ERS12561819 for biotransformation under anaerobic condition. The drug concentrations were measured over 9 timepoints collected between 0 and 24 hours of incubation by liquid-chromatography-coupled mass spectrometry (LC–MS). The conditions noted are these: 2 µM.

Data set [11] in a line: The drug is tested on Z-017 corresponding to mouse gut metagenome with ENA study accession number: PRJEB37062 and ENA sample accession number: ERS12561816 for biotransformation under anaerobic condition. The drug concentrations were measured over 9 timepoints collected between 0 and 24 hours of incubation by liquid-chromatography-coupled mass spectrometry (LC–MS). The conditions noted are these: 2 µM.

The nature of data set [12]: The drug is tested on Z-018 corresponding to pig gut metagenome with ENA study accession number: PRJEB37062 and ENA sample accession number: ERS12561817 for biotransformation under anaerobic condition. The drug concentrations were measured over 9 timepoints collected between 0 and 24 hours of incubation by liquid-chromatography-coupled mass spectrometry (LC–MS). The settings on record: 2 µM.

For data set [13] the following is noted: human gut metagenome, 24 h, 2 µM. The source holds these as a separate data set.
A short description of data set [14]: The drug is tested on WLS-082 corresponding to human gut metagenome with ENA study accession number: PRJEB37062 and ENA sample accession number: ERS12561751 for biotransformation under anaerobic condition. The drug concentrations were measured over 9 timepoints collected between 0 and 24 hours of incubation by liquid-chromatography-coupled mass spectrometry (LC–MS). The settings on record: 2 µM.

For data set [15] the following is noted: human gut metagenome, 24 h, 2 µM. This is another data set of the same source.
For data set [16] the following is noted: human gut metagenome, 24 h, 2 µM. The source holds these as a separate data set.
Data set [17] can be described thus: The drug is tested on WLS-220 corresponding to human gut metagenome with ENA study accession number: PRJEB37062 and ENA sample accession number: ERS12561769 for biotransformation under anaerobic condition. The drug concentrations were measured over 9 timepoints collected between 0 and 24 hours of incubation by liquid-chromatography-coupled mass spectrometry (LC–MS). The conditions noted are these: 2 µM.

For data set [18] the following is noted: human gut metagenome, 24 h, 2 µM. The source holds these as a separate data set.
A short description of data set [19]: The drug is tested on Z-021 corresponding to metagenome with ENA study accession number: PRJEB37062 and ENA sample accession number: ERS12561820 for biotransformation under anaerobic condition. The drug concentrations were measured over 9 timepoints collected between 0 and 24 hours of incubation by liquid-chromatography-coupled mass spectrometry (LC–MS). The conditions noted are these: 2 µM.

Data set [20] in a line: The drug is tested on WLS-039 corresponding to human gut metagenome with ENA study accession number: PRJEB37062 and ENA sample accession number: ERS12561746 for biotransformation under anaerobic condition. The drug concentrations were measured over 9 timepoints collected between 0 and 24 hours of incubation by liquid-chromatography-coupled mass spectrometry (LC–MS). The settings on record: 2 µM.

The structures appear in SMILES notation.
Further: call rule not given here.

With `CCCc1nn(C)c2c(=O)[nH]c(-c3cc(S(=O)(=O)N4CCN(C)CC4)ccc3OCC)nc12.O=C(O)CC(O)(CC(=O)O)C(=O)O` [SILDENAFIL CITRATE], the “Bacterial Biotransformation” value in data set [1] is given as “Compound NOT metabolized”; in [2], “Compound metabolized”; in data set [3] it was “Compound NOT metabolized”; in [4] it was “Compound NOT metabolized”; in [5], “Compound NOT metabolized”; in data set [6], “Compound metabolized”. Also, the “Bacterial Biotransformation” value in [7], in data set [8], in [9], in [10], in [11] and in [12] was “Compound NOT metabolized” in each case. For the same molecule, the “Bacterial Biotransformation” value in [13] is recorded as “Compound NOT metabolized”; in data set [14] it was “Compound NOT metabolized”; in data set [15], “Compound NOT metabolized”; in data set [16], “Compound NOT metabolized”; in [17], “Compound NOT metabolized”; in [18], “Compound metabolized”. In addition, the “Bacterial Biotransformation” value in data set [19] and in data set [20] was “Compound NOT metabolized” throughout.

As for `CN1C(C(=O)Nc2ccccn2)=C(O)c2sccc2S1(=O)=O` [TENOXICAM], the “Bacterial Biotransformation” value in [1], in data set [2], in data set [3], in [4], in data set [5] and in [6] was “Compound NOT metabolized” in each case. Further, the “Bacterial Biotransformation” value in data set [7] was “Compound metabolized”; in [8] it was “Compound NOT metabolized”; in [9], “Compound NOT metabolized”; in data set [10] it was “Compound NOT metabolized”; in data set [11], “Compound NOT metabolized”; in data set [12], “Compound NOT metabolized”. Also, the “Bacterial Biotransformation” value in [13], in data set [14], in data set [15], in data set [16], in data set [17] and in data set [18] was “Compound NOT metabolized” each time. In addition, the “Bacterial Biotransformation” value in data set [19] is on record as “Compound metabolized”; in [20] it was “Compound NOT metabolized”.

For `O=c1n(CCCN2CCN(c3cccc(Cl)c3)CC2)nc2ccccn12` [TRAZODONE], the “Bacterial Biotransformation” value was “Compound metabolized” in data set [1]; “Compound metabolized” in data set [2]; “Compound NOT metabolized” in data set [3]; “Compound NOT metabolized” in data set [4]; “Compound NOT metabolized” in [5]; “Compound metabolized” in data set [6]. Further, the “Bacterial Biotransformation” value in data set [7] was “Compound metabolized”; in [8], “Compound NOT metabolized”; in data set [9], “Compound NOT metabolized”; in data set [10], “Compound NOT metabolized”; in data set [11] it was “Compound NOT metabolized”; in data set [12] it was “Compound NOT metabolized”. The “Bacterial Biotransformation” value in data set [13] was “Compound metabolized”; in data set [14], “Compound metabolized”; in data set [15] it was “Compound metabolized”; in data set [16] it was “Compound metabolized”; in data set [17], “Compound metabolized”; in data set [18] it was “Compound NOT metabolized”. The “Bacterial Biotransformation” value in [19] and in data set [20] was “Compound NOT metabolized” each time.

As to `OC(CCN1CCCCC1)(c1ccccc1)C1CCCCC1` (stereo not given) [TRIHEXYPHENIDYL], the “Bacterial Biotransformation” value in data set [1] is listed as “Compound NOT metabolized”; in data set [2] it was “Compound metabolized”; in data set [3], “Compound metabolized”; in data set [4], “Compound metabolized”; in [5], “Compound NOT metabolized”; in data set [6] it was “Compound NOT metabolized”. The “Bacterial Biotransformation” value in data set [7] is “Compound NOT metabolized”; in data set [8], “Compound NOT metabolized”; in data set [9], “Compound NOT metabolized”; in data set [10] it was “Compound metabolized”; in data set [11] it was “Compound NOT metabolized”; in data set [12] it was “Compound metabolized”. The “Bacterial Biotransformation” value was “Compound metabolized” in [13]; “Compound NOT metabolized” in [14]; “Compound metabolized” in data set [15]; “Compound metabolized” in data set [16]; “Compound NOT metabolized” in [17]; “Compound metabolized” in data set [18]. Further, the “Bacterial Biotransformation” value in [19] and in data set [20] was “Compound metabolized” each time.
